Assay results taken from patent US7183091B2, “Sulfite reductase, the process for producing the same and the use thereof” (Nugen Bioscience (Taiwan) Co., Ltd., priority 2003, dated 2007).
Read-outs that look alike come from different tables or passages of the source.

Assays:
[1] = target: T1, sulfite reductase from Saccharomyces cerevisiae (Saccharomyces cerevisiae, UniProt P39692+P47169); assay: Effects of metal ions, inhibitors and reducing agents on enzyme activity; assay type: biochemical; settings: for effect of metal ions on catalytic activity: metals 0.5, 1.0, 5.0 and 10.0 mM
T1 construct: Saccharomyces cerevisiae cell was collected by 30 min centrifugation at 4,000×g; made in house; host or cells: endogenous enzyme purified from cultured Saccharomyces cerevisiae cells (not recombinant)
T1 sequence (P47169 1-1442): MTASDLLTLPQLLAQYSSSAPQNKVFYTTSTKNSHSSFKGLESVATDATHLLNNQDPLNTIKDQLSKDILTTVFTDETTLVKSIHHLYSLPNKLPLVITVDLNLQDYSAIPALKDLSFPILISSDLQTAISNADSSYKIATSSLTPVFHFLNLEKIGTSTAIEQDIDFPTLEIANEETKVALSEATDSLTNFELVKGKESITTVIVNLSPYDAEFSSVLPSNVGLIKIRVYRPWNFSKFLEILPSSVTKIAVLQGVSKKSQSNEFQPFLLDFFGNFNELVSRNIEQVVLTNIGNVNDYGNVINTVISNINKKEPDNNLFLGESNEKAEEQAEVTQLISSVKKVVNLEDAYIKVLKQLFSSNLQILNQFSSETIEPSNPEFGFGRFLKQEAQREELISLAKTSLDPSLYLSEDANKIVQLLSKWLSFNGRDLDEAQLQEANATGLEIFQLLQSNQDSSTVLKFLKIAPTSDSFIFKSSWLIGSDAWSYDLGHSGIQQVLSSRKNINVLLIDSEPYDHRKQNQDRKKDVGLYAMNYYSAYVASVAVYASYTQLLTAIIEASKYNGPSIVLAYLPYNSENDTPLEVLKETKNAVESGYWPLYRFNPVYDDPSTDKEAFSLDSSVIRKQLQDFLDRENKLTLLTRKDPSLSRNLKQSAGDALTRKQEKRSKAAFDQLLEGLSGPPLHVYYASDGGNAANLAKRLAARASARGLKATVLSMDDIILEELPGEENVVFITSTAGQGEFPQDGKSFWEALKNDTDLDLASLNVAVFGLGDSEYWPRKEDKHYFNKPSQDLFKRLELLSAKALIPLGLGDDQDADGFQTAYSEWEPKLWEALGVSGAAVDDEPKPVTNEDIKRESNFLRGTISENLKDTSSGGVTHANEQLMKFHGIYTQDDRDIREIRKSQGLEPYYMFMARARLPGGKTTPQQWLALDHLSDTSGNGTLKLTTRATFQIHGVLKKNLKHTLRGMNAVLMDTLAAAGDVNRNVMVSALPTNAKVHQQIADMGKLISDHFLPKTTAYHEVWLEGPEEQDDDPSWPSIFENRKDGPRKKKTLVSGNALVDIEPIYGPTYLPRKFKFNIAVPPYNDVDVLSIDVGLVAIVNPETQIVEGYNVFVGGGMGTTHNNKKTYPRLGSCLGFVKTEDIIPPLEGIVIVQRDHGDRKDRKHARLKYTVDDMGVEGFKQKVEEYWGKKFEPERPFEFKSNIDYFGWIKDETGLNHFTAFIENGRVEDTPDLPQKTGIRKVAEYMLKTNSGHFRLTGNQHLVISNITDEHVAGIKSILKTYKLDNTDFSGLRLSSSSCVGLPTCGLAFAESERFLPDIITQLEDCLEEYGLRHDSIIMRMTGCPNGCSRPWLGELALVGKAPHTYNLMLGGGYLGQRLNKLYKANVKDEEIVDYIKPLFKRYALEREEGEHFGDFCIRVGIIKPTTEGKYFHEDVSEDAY
T1 sequence (P39692 1-1035): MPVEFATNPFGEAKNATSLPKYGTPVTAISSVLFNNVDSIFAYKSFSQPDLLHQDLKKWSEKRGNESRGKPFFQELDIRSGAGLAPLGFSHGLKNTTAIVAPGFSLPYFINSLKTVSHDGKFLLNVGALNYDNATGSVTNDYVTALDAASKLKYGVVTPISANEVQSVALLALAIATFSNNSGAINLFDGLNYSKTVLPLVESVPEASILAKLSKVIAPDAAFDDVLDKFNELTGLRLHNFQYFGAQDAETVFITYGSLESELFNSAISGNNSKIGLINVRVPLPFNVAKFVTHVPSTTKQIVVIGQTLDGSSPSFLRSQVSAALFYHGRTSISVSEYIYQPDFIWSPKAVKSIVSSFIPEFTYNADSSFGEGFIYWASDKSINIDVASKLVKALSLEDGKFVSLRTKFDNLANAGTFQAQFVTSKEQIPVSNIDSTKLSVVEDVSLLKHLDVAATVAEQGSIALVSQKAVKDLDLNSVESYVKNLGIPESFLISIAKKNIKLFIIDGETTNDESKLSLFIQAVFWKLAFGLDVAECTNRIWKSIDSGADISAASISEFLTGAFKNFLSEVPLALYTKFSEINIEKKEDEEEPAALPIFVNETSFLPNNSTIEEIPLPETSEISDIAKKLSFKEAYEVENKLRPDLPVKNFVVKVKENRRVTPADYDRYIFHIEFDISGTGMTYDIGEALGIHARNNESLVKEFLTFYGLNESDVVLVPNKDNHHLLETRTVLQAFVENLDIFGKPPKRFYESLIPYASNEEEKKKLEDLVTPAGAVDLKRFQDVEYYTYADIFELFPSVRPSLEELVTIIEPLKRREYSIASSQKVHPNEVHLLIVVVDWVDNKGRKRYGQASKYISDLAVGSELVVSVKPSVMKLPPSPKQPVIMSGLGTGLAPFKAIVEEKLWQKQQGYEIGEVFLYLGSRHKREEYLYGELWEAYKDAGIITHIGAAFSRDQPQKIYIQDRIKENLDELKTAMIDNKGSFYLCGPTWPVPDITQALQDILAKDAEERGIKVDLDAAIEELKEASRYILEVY
Experimental: (§1) […]. To 0.9 mL reaction mixture [0.1 M phosphate buffer (pH 7.7) containing 0.5 mM EDTA, 0.5 mM NaHSO3, 1 μM FMN, and 0.2 mM NADPH], 0.1 mL of reductase was added and incubated at 25° C. The activity was determined according to the initial velocity after the addition of reductase and corrected by the slow oxidation of NADPH in the absence of sulfite. One activity unit was defined as the amount of enzyme which catalyzed the oxidation of 1 μmol NADPH within 1 minute reaction 25° C. under the above condition.

[2] = tested on: sulfite reductase from Escherichia coli; assay: as above; assay type: biochemical
Experimental: as §1

[3] = metals 0.5, 1.0, 5.0 and 10.0 mM, 25° C., 30 minutes
[4] = inhibitor 1.0 mM, 25° C., 30 minutes

Row | SMILES | effect of metal ions on catalytic activity ([1]; 25° C., 30 minutes) | effect of metal ions on catalytic activity [2, 3] | also measured
1 | [Cu+2] [Cu^2+] | strongly inhibited | strongly inhibited | 
2 | O=C(O)c1cc[c]([Hg][Cl])cc1 [PCMB, p-chloromercuribenzoate] |  |  | effect of inhibitors on catalytic activity [1, 4]: completely inhibited; effect of inhibitors on catalytic activity [2, 4]: completely inhibited
3 | [Cd+2] [Cd^2+] |  | moderately | 
4 | [Ca+2] [Ca^2+] | did not affect the enzyme activity | strongly inhibited | 
5 | [Hg+2] [Hg^2+] | strongly inhibited | strongly inhibited | 
6 | [Pb+2] [Pb^2+] | strongly inhibited |  | 
7 | [Fe+2] [Fe^2+] | partially | strongly inhibited | 
8 | [Na+] [Na^+] | did not affect the enzyme activity | did not affect the enzyme activity | 
9 | N[C@@H](CS)C(=O)O [cysteine] |  |  | effect of reducing agents on enzyme activity [1]: improved the activity; effect of reducing agents on enzyme activity [2]: improved the activity
10 | [Co+2] [Co^2+] | partially | strongly inhibited | 
11 | [Mn+2] [Mn^2+] | partially | moderately | 
12 | [Ba+2] [Ba^2+] | partially | moderately | 
13 | [Ni+2] [Ni^2+] | partially |  | 
14 | [K+] [K^+] | did not affect the enzyme activity |  | effect of metal ions on catalytic activity [2]: did not affect the enzyme activity
15 | N[C@@H](CCC(=O)N[C@@H](CS)C(=O)NCC(=O)O)C(=O)O [glutathione] |  |  | effect of reducing agents on enzyme activity [1]: improved the activity; effect of reducing agents on enzyme activity [2]: improved the activity
16 | O=S(=O)(O)c1cc[c]([Hg][Cl])cc1 [PCMPS, p-chloromercuriphenylsulfonic acid] |  |  | effect of inhibitors on catalytic activity [1, 4]: completely inhibited
17 | [Zn+2] [Zn^2+] | strongly inhibited | moderately | 
18 | O=S(=O)(F)Cc1ccccc1 [PMSF, phenylmethylsulfonyl fluoride] |  |  | effect of inhibitors on catalytic activity [1, 4]: partially; effect of inhibitors on catalytic activity [2, 4]: partially
19 | O=C(O)CI [IAA, Iodoacetate] |  |  | effect of inhibitors on catalytic activity [1]: partially; effect of inhibitors on catalytic activity [2]: partially
20 | O[C@H](CS)[C@H](O)CS (racemic) [dithiothreitol] |  |  | effect of reducing agents on enzyme activity [1]: improved the activity; effect of reducing agents on enzyme activity [2]: improved the activity
21 | CCN1C(=O)C=CC1=O [NEM, N-ethylmaleimide] |  |  | effect of inhibitors on catalytic activity [1, 4]: partially; effect of inhibitors on catalytic activity [2, 4]: partially
22 | OCCS [β-mercaptoethanol] |  |  | effect of reducing agents on enzyme activity [1]: improved the activity; effect of reducing agents on enzyme activity [2]: improved the activity
23 | [Mg+2] [Mg^2+] | did not affect the enzyme activity | did not affect the enzyme activity | 
